From article PMC10590383, “Repurposing conformational changes in ANL superfamily enzymes to rapidly generate biosensors for organic and amino acids” (Nature Communications, 2023)

Tests used:
[1] = Substrate (ligand) specificity of […]s; assay type: biochemical; conditions: for fluorescence response of GECFINDER to each substrate, AVE of 3 repeats: Supplementary Fig. 3 c, substrate specificity; for AVE of Repeat 1-3, sensor signal with ligand (Supplementary Fig. 7 c): 1 mM ligand, Control AVE 12117.3
Description: Fig. 4 Engineering ligand specificity of GrsA-PheA for generating […]s. a The selectivity-conferring code of Phe and Leu A domains. b–f Dose–response curve of purified […]s with increasing concentrations of ligands in 100 mM Tris-HCl buffer (pH=7.5). All data shown are means ± S.D. (n = 3 biologically independent samples). g A series of […] reactions was tested to show the […]’s specificity with 20 proteinogenic amino acids. The values on the heatmap represent the ΔF/F0 value normalized to each […]’s maximal ΔF/F0 value ((ΔF/F0)/maximal ΔF/F0). The concentrations of 20 amino acids were 100 μM. The color indicates the average value of three independent biological replicates after 15 min. All data shown are means ± S.D. (n = 3 biologically independent samples). Source data are provided as a Source data file.
Ligand specificity is an important biosensors feature. Generally, the NRPS A domains have high specificity for their substrates because they are the first “gatekeeper” of NRPSs and ensure that the correct monomers are activated and thioesterified[32],[33]. Therefore, we speculated that this property would be inherited by our […]s because the ligand-binding pockets were unchanged during the […] creation process. Twenty proteinogenic amino acids were used to test the ligand specificity of […]s. […] We also investigated the dependence of […]s on Mg^2+ and ATP (Supplementary Fig. 4). […] This phenomenon corroborates with the distinct conformational changes observed in Hinge A of Nt4CL2 (Mg^2++ATP) (PDB ID: 5BSM) and Nt4CL2 (Coumaroyl-AMP) (PDB ID: 5BST) reported in the literature (Supplementary Fig. 4k), where the direction of motion in hinge A differs. […] During the determination of quantum yield, we observed that the absolute quantum yield of the […] variants ranged from 0.3 to 0.6 upon addition of the respective substrates, which show no significant difference with that reported in literature. The specific values are provided in Supplementary Table 2.
The study conducted dose–response curve, substrate specificity, and fluorescent spectrum analyses in 100-mM Tris buffer (pH = 7.5), while pH stability experiments were performed in 100-mM Tris buffer at three different pH values (6.5, 7.5, and 8.5) at room temperature. […] protein at a concentration of 0.75 μM, various small molecule concentrations, 1 mM ATP, and 2.5 mM MgCl2 were used in the experiments. Fluorescent signals were detected using a Microplate Reader (Synergy H4, Bio Tek) at an excitation/emission wavelength of 460 nm/510 nm or 480 nm/510 nm. The dose-response curve was determined immediately after the addition of the analyte. The total duration of the measurement was 15 min, with readings taken at one-minute intervals. The dose-response curve was plotted using the fluorescence values obtained after achieving stability in the fluorescence signal. The dose-response curves were fitted using the logistic model LOGISTIC5 available in Origin 2021, which could provide a more adequate fit to asymmetric dose-response data[62],[63]. Excitation spectra were scanned from 300 to 540 nm with a step size of 5 nm, and the emission wavelength was set to 560 nm. Emission spectra were scanned from 470 to 700 nm with a step size of 5 nm, and the excitation wavelength was set to 450 nm. The thermal stability of […] was analyzed using the UNcle multifunctional protein stability analysis system. Measurements were performed in 20 mM MOPS buffer with 2 mM DTT at a sample concentration of 1 mg/mL. Absolute fluorescence quantum yields were measured using an absolute photoluminescence quantum yield spectrometer (FS5, Edinburgh).

[2] = Dependence of […]s on Mg2+ and ATP (fluorescence intensity); assay type: biochemical; conditions: Mg+ +
Source text: Ligand specificity is an important biosensors feature. Generally, the NRPS A domains have high specificity for their substrates because they are the first “gatekeeper” of NRPSs and ensure that the correct monomers are activated and thioesterified[32],[33]. […] Twenty proteinogenic amino acids were used to test the ligand specificity of […]s. […] We also investigated the dependence of […]s on Mg^2+ and ATP (Supplementary Fig. 4).
Supplementary Fig. 4 Dependence of GEC FINDER s on Mg2+ and ATP . a-j, Fluore scence intensities of
GECF IN DERs in the absence of any substra te, in the pre sence of Mg2+ alone, ATP alone, both Mg2+ and ATP, Mg2+
and ATP with re spective substra tes. Mg2+ concentra tion was 2.5 mM, and ATP concentra tion was 1 mM. a, 100 μM
data are provided as a Source Data file.

N=C(N)NCCC[C@H](N)C(=O)O [Arg]
fluorescence response of GECFINDER to each substrate, AVE of 3 repeats [1]: 0.01953

CC[C@H](C)[C@H](N)C(=O)O [isoleucine]
fluorescence intensity, AVE of 3 repeats ([2]; Supplementary Fig. 4 e, ATP +, isoleucine +): 15546

C[C@@H](O)[C@H](N)C(=O)O [Thr]
fluorescence response of GECFINDER to each substrate, AVE of 3 repeats [1]: -0.00888

CSCC[C@H](N)C(=O)O [Met]
AVE of Repeat 1-3, sensor signal with ligand (Supplementary Fig. 7 c) [1]: 12345.3
fluorescence response of GECFINDER to each substrate, AVE of 3 repeats [1]: 0.1232

N[C@@H](Cc1ccc(O)cc1)C(=O)O [tyrosine]
fluorescence intensity, AVE of 3 repeats ([2]; Supplementary Fig. 4 i, ATP +, tyrosine +): 9237.33

NCCCC[C@H](N)C(=O)O [Lys]
fluorescence response of GECFINDER to each substrate, AVE of 3 repeats [1]: -0.005837

NC(=O)C[C@H](N)C(=O)O [Asn]
fluorescence response of GECFINDER to each substrate, AVE of 3 repeats [1]: 0.01237

O=C(O)[C@@H]1CCCN1 [proline]
fluorescence intensity, AVE of 3 repeats ([2]; Supplementary Fig. 4 d, ATP +, proline +): 54621.3

C[C@H](N)C(=O)O [Ala]
fluorescence response of GECFINDER to each substrate, AVE of 3 repeats [1]: 0.02842

N[C@@H](CC(=O)O)c1ccccc1 [S-β-phenylalanine]
fluorescence intensity, AVE of 3 repeats ([2]; Supplementary Fig. 4 h, ATP +, S-β-phenylalanine +): 22066

N[C@@H](Cc1c[nH]c2ccccc12)C(=O)O [Trp]
AVE of Repeat 1-3, sensor signal with ligand (Supplementary Fig. 7 c) [1]: 11938.7
fluorescence response of GECFINDER to each substrate, AVE of 3 repeats [1]: -0.01712

N[C@@H](CS)C(=O)O [Cys]
fluorescence response of GECFINDER to each substrate, AVE of 3 repeats [1]: -0.0008412

CC(C)[C@H](N)C(=O)O [Val]
fluorescence response of GECFINDER to each substrate, AVE of 3 repeats [1]: -0.02124

N[C@@H](Cc1c[nH]cn1)C(=O)O [histidine]
fluorescence intensity, AVE of 3 repeats ([2]; Supplementary Fig. 4 f, ATP +, histidine +): 33756

NC(=O)CC[C@H](N)C(=O)O [Gln]
fluorescence response of GECFINDER to each substrate, AVE of 3 repeats [1]: 0.009843

[Mg+2] [Mg+]
fluorescence intensity, AVE of 3 repeats ([2]; Supplementary Fig. 4 a, ATP -, 4-coumaric acid -): 2849
fluorescence intensity, AVE of 3 repeats ([2]; Supplementary Fig. 4 b, ATP -, phenylalanine -): 6591
fluorescence intensity, AVE of 3 repeats ([2]; Supplementary Fig. 4 c, ATP -, glutamine -): 17660
fluorescence intensity, AVE of 3 repeats ([2]; Supplementary Fig. 4 e, ATP -, isoleucine -): 12580
fluorescence intensity, AVE of 3 repeats ([2]; Supplementary Fig. 4 f, ATP -, histidine -): 26018
fluorescence intensity, AVE of 3 repeats ([2]; Supplementary Fig. 4 g, ATP -, leucine -): 6350.33
fluorescence intensity, AVE of 3 repeats ([2]; Supplementary Fig. 4 i, ATP -, tyrosine -): 5977
fluorescence intensity, AVE of 3 repeats ([2]; Supplementary Fig. 4 j, ATP -, phenylalanine -): 7671.67
fluorescence intensity, AVE of 3 repeats ([2]; Supplementary Fig. 4 h, ATP -, S-β-phenylalanine -): 5046.33
fluorescence intensity, AVE of 3 repeats ([2]; Supplementary Fig. 4 d, ATP -, proline -): 43559.3

NCC(=O)O [Gly]
fluorescence response of GECFINDER to each substrate, AVE of 3 repeats [1]: 0.007359

N[C@@H](CO)C(=O)O [Ser]
fluorescence response of GECFINDER to each substrate, AVE of 3 repeats [1]: -0.004319

N[C@@H](CC(=O)O)C(=O)O [Asp]
fluorescence response of GECFINDER to each substrate, AVE of 3 repeats [1]: 0.02069

N[C@@H](Cc1ccccc1)C(=O)O [phenylalanine]
fluorescence intensity, AVE of 3 repeats ([2]; Supplementary Fig. 4 b, ATP +, phenylalanine +): 39284.7
fluorescence intensity, AVE of 3 repeats ([2]; Supplementary Fig. 4 j, ATP +, phenylalanine +): 31788
